Results from publication PMC3704178 (ACS medicinal chemistry letters, 2013).

Experiments:
[1] = tested on: PrP^Sc level in RML prion-infected mouse neuroblastoma cells (ScN2a-cl3); format: cell-based
[2] = Microsomal stability, mouse microsomes
[3] = Microsomal stability, human microsomes

## CC(=O)c1ccc(N2CCN(Cc3ccccc3)CC2)cc1 [Compound 1]
[1]
  Antiprion potency EC50 ± SEM: micromolar range

## CC(=O)c1ccc(N2CCN(Cc3cccnc3)CC2)cc1 [Compound 7]
[1]
  Antiprion potency EC50 ± SEM: micromolar range

## CC(=O)c1ccc(N2CCN(Cc3cccs3)CC2)cc1 [Compound 13]
[1]
  Antiprion potency EC50 ± SEM: micromolar range

## CC(=O)c1ccc(N2CCN(Cc3ccc(C)o3)CC2)cc1 [Compound 19]
[1]
  Antiprion potency EC50 ± SEM: micromolar range

## c1cncc(CN2CCN(c3ccc(-c4nc5ccccc5o4)cc3)CC2)c1 [Compound 41]
[1]
  Fold more potent (EC50) than furanyl 42 and thiophenyl 43: ≥ 13 fold

## c1cncc(CN2CCN(c3ccc(-c4nc5ccccc5s4)cc3)CC2)c1 [Compound 44]
[2]
  Fold improvement of t1/2 in mouse microsomes compared to 41: approximately 2 fold

## Fc1ccc(CN2CCN(c3ccc(-c4nc5ccccc5o4)cc3)CC2)cn1 [Compound 46]
[1]
  Fold less potent (EC50) than parent pyridine analog 41: 1.5 fold

## COc1ccc(CN2CCN(c3ccc(-c4nc5ccccc5o4)cc3)CC2)cn1 [Compound 47]
[1]
  Fold less potent (EC50) than parent pyridine analog 41: 4.5 fold
[2]
  Fold improvement of t1/2 in mouse microsomes compared to 41: approximately 3 fold
[3]
  Fold increase in stability in human microsomes compared to 41: approximately 3 fold
